One compound from paper PMC8476002, “Bergamottin a CYP3A inhibitor found in grapefruit juice inhibits prostate cancer cell growth by downregulating androgen receptor signaling and promoting G0/G1 cell cycle block and apoptosis” (PLoS ONE, 2021) can be followed below.

Experiment [1] relates to PSA in MDAPCa2b cells. In words: Western blotting of PSA, MDAPCa2b. The experiment is classed as cell-based, human. Particulars: 10μM, 96 hours. As for the experimental part:
(§1) Cells were plated at 25–30% confluence when maintained in complete media. When the cells required DHT tretment and media replacement to charcoal stripped serum media (CSSM) they were plated at 35–40% confluence. Bergamottin is dissolved in DMSO (vehicle control) and the amount of DMSO at each treatment group was kept constant. After the completion of the treatment cells were washed in phosphate buffer (PBS) containing 2mMEDTA and 2mM EGTA and lysed in RIPA buffer (50 mM TRIS, 150 mM NaCl, 1% NP40, 0.5% sodium deoxycholate, 0.1% SDS, 2mM EDTA, 2mM EGTA) supplemented with protease and phosphatase inhibitors for total protein isolation. Protein estimation was performed using micro BCA assay and equal protein amponts were loaded on SDS-PAGE gels for western analysis. GAPDH was used as an internal control for total protein. Infrared fluorescent-labeled secondary antibodies were used for detection using Odyssey CLx. The bands were quantified using Odyssey software, which calculates pixel density and automatically takes an area adjacent to each band for background corrections.
In general terms: In western blotting, separated proteins are transferred to a membrane and probed.

Experiment [2] deals with RWPE1 cells (non transformed prostate epithelium). In words: MTT growth assay, RWPE1. The experiment is classed as cell-based, human. As for the experimental part:
(§2) Growth of the cells was measured using a MTT assay. Cells were plated (2000 cells/ 96 well or 13,000 cells/ 24 well) for 48 hours then treated with bergamottin for 4 days (96 hours) and then incubated with MTT (3-(4,5-Dimethylthiazol- 2-yl)-2,5-Diphenyltetrazolium bromide) (4 mg/ml) for 2 h. at 37°C. DMSO (vehicle control for bergamottin) levels were compensated in each bergamottin treatment group. Cells were centrifuged at 2000 g for 10 min and the supernatant was discarded. The cell pellet was dissolved in 100/500 μl of DMSO depending on the well size. A plate reader was used to read the absorption at 540 nm. Experiments were performed in octuplet/quadruplet and repeated at least three times.
(Tetrazolium dyes change colour on reduction, which living cells bring about.)

Experiment [3] deals with LNCaP cells. In words: Clonogenic assay, LNCaP. The experiment is classed as cell-based, human. Particulars: 5μM and 10μM, 3 weeks. On the procedure:
For clonogenic assay, cells were plated in 6 well plates (10,000 cells) for 48 h and then treated with indicated amounts of bergamottin and vehicle control (DMSO). After 3 weeks, the colonies were fixed, stained (0.75% crystal violet, 50% ethanol and 1.75% formaldehyde) and counted. The assay was repeated three times.

Experiment [4] has as its system PSA in LNCaP cells. In words: Western blotting of PSA, LNCaP. Particulars: 10μM, 96 hours. The experiment is classed as cell-based, human. As for the experimental part:
as §1

In experiment [5] the test system is PARP cleavage in LNCaP cells. In words: Western blot of PARP cleavage, LNCaP. The experiment is classed as cell-based, human. Particulars: 5 and 10 μM for 96 hrs. and 20 μM for 48 hrs. As for the experimental part:
as §1
Cells were plated in complete media without antibiotics on poly D-lysine-coated plates (80,000 cells per 6 well). […]

Experiment [6] has as its system MDAPCa2b cells. In words: MTT growth assay, MDAPCa2b. The experiment is classed as cell-based. Particulars: Homo sapiens, MDA-PCa-2b. As for the experimental part:
as §2

The subject of experiment [7] is nuclear AR in LNCaP cells. In words: Cell fractionation, AR nuclear localization, LNCaP. The experiment is classed as cell-based, human. Particulars: bergamottin 10μM, with and without DHT induction. On the procedure:
as §1
Nuclear and cytoplasmic cell fractionation was prepared using NE-PER Nuclear and cytoplasmic extraction kit from Thermo Scientific (Cat no.78833) and manufacturer’s instructions were followed. […]

For experiment [8], the system named is LNCaP cells. In words: TUNEL apoptosis detection assay, LNCaP. The experiment is classed as cell-based, human. The settings on record: 10μM, 4 days. On the procedure: To detect apoptosis in the cells after bergamottin treatment In Situ cell death detection kit from Sigma-Aldrich (St. Louis, MO) was used. This apoptosis detection kit fluorescently labels the single and double-stranded DNA breaks caused due to apoptosis using terminal deoxynucleotidyl transferase (TUNEL-reaction). The cells were plated in poly- D- lysine coated 35 mm Glass bottom dish (Cellvis catalog# D35C4-20-1.5-N), treated with bergamottin for the specified time, and dosage and then stained with the kit reagents. The kit recommended protocol was followed. After the staining, the confocal microscope was used to procure images of the cells. The TUNEL assay preferentially labels apoptosis in comparison to necrosis and positive apoptosis is recognized when cells incorporate fluorescent labelled nucleotide (Ex 450 to 500nm and Em 515 to 565-green).

Experiment [9] relates to LNCaP cells. In words: MTT growth assay, LNCaP. The experiment is classed as cell-based. The settings on record: Homo sapiens. As for the experimental part: as §2
Where [10] appears, read: treatment 96 hours (methods) / 120 hours (Fig 1 legend), read-out: bergamottin concentration giving 50% growth reduction.

As to `CC(C)=CCC/C(C)=C/COc1c2ccoc2cc2oc(=O)ccc12` [bergamottin], the PSA levels entry in experiment [1] and in [4] was “significantly reduced PSA levels” throughout. Moreover, the inhibition at 10 µM in experiment [2] (Homo sapiens, RWPE-1, RWPE1, 10μM) was determined as 60%; in [6] (10μM) it was 60%; in experiment [9] (10μM) it was 60%. Besides, the “effect on growth at lower concentration” value in experiment [2] (RWPE1, lower concentration) is given as “does not effect growth”. The number of colonies result in experiment [3] was “significantly reduced the number of colonies”. The PARP cleavage result in experiment [5] is reported as “showed apoptosis (cleaved PARP)”. In addition, the figures for the IC50 in experiment [6] (setting [10]) and in experiment [9] (setting [10]) were 4 µM and 2.4 µM, respectively. The “nuclear translocation of AR (cell fractionation)” value in experiment [7] is recorded as “inhibited nuclear translocation of AR”. For the same compound, the “DNA breaks (TUNEL, apoptosis)” value in experiment [8] was “increased DNA breaks”.

The term inhibition denotes the drop in the measured response relative to a control, in per cent.
